EP0266828B1, “Control of biofouling with certain alkylthioalkylamines” (THE DOW CHEMICAL COMPANY, priority 1986, dated 1988)
In brackets after ≈: the same amount, converted by molar mass. Like-named read-outs stand apart in the source and are kept apart here.

Columns and labels:
[1] = system: Enterobacter aerogenes, ATCC #13048; assay: Kill time evaluation (concentration that kills all cells); assay type: cell-based; settings: Klebsiella aerogenes, ATCC13048
Experimental: Hard water was prepared by sterilizing deionized water and adjusted to 500 ppm hardness and 100 ppm alkalinity by addition of 16.7 ml of sterile CaCl₂·2H₂O (36.8 g/l), 16.7 ml of sterile MgSO₄·7H₂O (12 g/l), and 5 ml of sterile NaHCO₃ (16.8 g/l) to 1 liter of water. The pH was adjusted by addition of diluted NaOH or acetic acid.
(§1) Nutrient broth containing 300 ppm total organic carbon (TOC) and 800 ppm total dissolved solids (TDS), was adjusted to pH 8.5 with NaOH and dispensed in 10 ml aliquots into 18 x 150 mm test tubes. These tubes were capped and autoclaved for 15 minutes at 121°C. Immediately before use, 50 microliters (µl) of a heat sterilized solution of 31.74 g/l MgCl₂ and 73.99 g/l CaCl₂ was added to tubes designated to contain 500 ppm hardness. The tubes with and without added hardness were readjusted to pH 8.5 by addition of appropriate amounts of a filter sterilized solution of 16.8 g/l NaHCO. One hundred and eighty and 125 µl of the NaHCO solution were added, respectively, to tubes with and without added hardness to achieve a pH of 8.5.
(§2) Unless otherwise indicated, Enterobacter aerogenes, ATCC #13048, was used as the test organism. Three 0.1 ml aliquots of a 24 hour nutrient broth culture were pipetted onto three nutrient agar plates and spread uniformly with a Petri dish spreader. After 24 hours' growth, the cells were scraped and washed off the agar surface with sterile glass rods (hockey sticks) and sterile saline solution. After vigorous mixing (vortexing) to break up clumps, the cell suspension was filtered through a sterile filter (Whatman #4) to remove residual clumps. […] Solutions with this optical density, when diluted 1:100, contained approximately 10¹⁰ CFU/ml when plated on standard nutrient agar. The exact number of organisms was determined by making serial dilutions of the cell suspension and plating them on nutrient agar plates. Each of the serial dilution tubes was also streaked on a nutrient agar plate. These streaks of known concentrations of organisms were then used as controls to determine the number of organisms in the test samples.
(§3) Just prior to the addition of the test compounds, 0.1 ml of the cell suspension containing approximately 10¹⁰ cells/ml was added to the prepared broth tubes. Solutions of 0.1 percent weight/weight (w/w) of experimental compound were prepared immediately before use. Appropriate amounts of these solutions were added to achieve final concentrations of 100, 50, 25, 10, 5 ppm of active ingredient in broth tubes both with and/or without hardness. The tubes were then incubated at 30°C. After three and/or 24 hours, dilutions of the broth tubes were made by addition of 0.1 ml of the broth into 9.9 ml of 0.85 percent saline containing 100 ppm NaHSO₃. From the saline tube the samples were streaked with cotton swabs onto nutrient agar plates which also contained 100 ppm NaHSO₃.
(§4) The plates were incubated for 24 hours and then read. The number of organisms present in the broth tubes was determined by comparing these plates to the control plates of the serial dilution tubes.
Dilute (1/10) nutrient broth was prepared according to standard methods known in the art and then adjusted to a variety of pH's by the addition of NaOH and HCl. The Kill Time Procedure substantially similar to that described in Example 2 was performed. High water hardness was not evaluated in this study.
The Kill Time Evaluation substantially similar to that described in Example 2 was performed.

Enterobacter aerogenes = assay: Minimum inhibitory concentration (MIC) procedure in agar at alkaline pH; assay type: cell-based; settings: Klebsiella aerogenes; pH 8.2; 48 hours at 30°C; no high water hardness; unit ppm only from method
Experimental: The agar (nutrient agar) was dispensed in 30 ml aliquots into 25 x 200 millimeter (mm) test tubes, capped and autoclaved for 15 minutes at 115°C. The test tubes containing the agar were cooled in a water bath until the temperature of the agar was 48°C and then an appropriate amount of the one percent solution of the test compound was added (except in the controls where no test compound was added) to the respective test tubes so that final concentrations of 500, 250, 100, 50, 25, 10, 5, 2.5, 1.0 and 0 parts per million (ppm) of the test compound in the agar were obtained. The afar solutions were each mixed and poured into individual petri plates so that each petri plate contained agar having a known concentration of test compound dispersed therein. After drying for 24 hours, the petri plates were inoculated with bacteria. The inoculation with bacteria was accomplished using the following procedure. Twenty-four hour cultures of the bacteria were prepared by incubating the bacteria in tubes containing nutrient broth for 24 hours at 30°C in a shaker. Dilutions of the 24 hour culture were made so that a suspension was made, containing about 10⁸ colony forming units (CFU) per ml of suspension of bacteria. Aliquots of 0.3 ml of the above suspension were used to fill individual wells of a Steer's Replicator. The Steer's Replicator was then used to inoculate the petri plates. The petri plates were incubated at 30°C for 48 hours and then read to determine if the test compound which was incorporated into the agar prevented growth of the respective bacteria. The minimum inhibitory concentration (MIC) for each bacteria was defined as the lowest concentration of the test compound which prevented growth of that bacteria. The MIC procedure substantially as described in Example 1 was performed. High water hardness was not evaluated in this study.

Aspergillus niger = assay: Kill time procedure against fungus, malt yeast agar; assay type: cell-based; settings: pH of 8.2 to 8.3, read-out: Ppm of Compound that Resulted in Kill of All Cells at Various Times
Experimental: as §1, §2, §3, §4
The kill time procedure substantially as described in Example 2 was performed using Aspergillus niger at a pH of 8.2 to 8.3. Malt yeast agar was used instead of nutrient agar and the incubation times were extended to accommodate the slower growing fungi cells.

algae = assay: Cooling tower trial versus duplicate tower without biocide; settings: 15 ppm added twice a week to recirculating water; pH of 8.5; hardness of 900 ppm; two week period
Excerpt: In comparison, the tower without any added biocide became heavily fouled with algae in the same two week period of time.

[2] = 3 hr, pH 8.5, hardness 500 ppm CaCo3, read-out: Ppm of the Compound that Kill all Cells
[3] = 24 hr, pH 8.5, hardness 500 ppm CaCo3, read-out: Ppm of the Compound that Kill all Cells

SMILES	MIC (Enterobacter aerogenes) [µg/mL]	MBC [1, 2] [µg/mL]	MBC [1, 3] [µg/mL]	also measured
CCCCCCCCCCCSCCN [n-undecylthioethylamine]	50 (≈ 216 µM)			
CCCCCCSCCN [n-hexylthioethylamine]	250 to 500 (≈ 1550 to 3100 µM)	500 (≈ 3100 µM)	250 (≈ 1550 µM)	
CCCCCCCCCCSCCN [n-decylthioethylamine]	10 to 25 (≈ 46 to 115 µM)	20 (≈ 92 µM)	40 (≈ 184 µM)	MBC ([1]; pH 5, 3 hours, dilute (1/10) nutrient broth, no high water hardness, read-out: Concentration (ppm) of DTEA That Kills all Cells in 3 Hours): 50 µg/mL (≈ 230 µM); MBC ([1]; pH 6, 3 hours, dilute (1/10) nutrient broth, no high water hardness, read-out: Concentration (ppm) of DTEA That Kills all Cells in 3 Hours): 50 µg/mL (≈ 230 µM); MBC ([1]; pH 7, 3 hours, dilute (1/10) nutrient broth, no high water hardness, read-out: Concentration (ppm) of DTEA That Kills all Cells in 3 Hours): 20 µg/mL (≈ 92 µM); MBC ([1]; pH 8, 3 hours, dilute (1/10) nutrient broth, no high water hardness, read-out: Concentration (ppm) of DTEA That Kills all Cells in 3 Hours): 10 µg/mL (≈ 46 µM); MBC ([1]; pH 9, 3 hours, dilute (1/10) nutrient broth, no high water hardness, read-out: Concentration (ppm) of DTEA That Kills all Cells in 3 Hours): 5 µg/mL (≈ 23 µM); MBC ([1]; pH 10, 3 hours, dilute (1/10) nutrient broth, no high water hardness, read-out: Concentration (ppm) of DTEA That Kills all Cells in 3 Hours): ≤ 5 µg/mL; MBC ([1]; pH 11, 3 hours, dilute (1/10) nutrient broth, no high water hardness, read-out: Concentration (ppm) of DTEA That Kills all Cells in 3 Hours): ≤ 5 µg/mL; MBC ([1]; pH 12, 3 hours, dilute (1/10) nutrient broth, no high water hardness, read-out: Concentration (ppm) of DTEA That Kills all Cells in 3 Hours): ≤ 5 µg/mL; MFC (Aspergillus niger; pH 8.2, 3 hr.): 3.5 µg/mL (≈ 16.1 µM); MFC (Aspergillus niger; pH 8.2, 6 hr.): 0.5 to 3.5 µg/mL (≈ 2.3 to 16.1 µM); MFC (Aspergillus niger; pH 8.2, 24 hr.): 0.1 µg/mL (≈ 0.46 µM); growth of algae in the treated tower or basin (algae): prevent the growth of any algae
CCCCCCCCCCCCCCSCCN [n-tetradecylthioethylamine]	> 500	> 500	> 500	

Now from value to compound, other results behind:

MIC (Enterobacter aerogenes) [µg/mL]	SMILES	MBC [1, 2] [µg/mL]	MBC [1, 3] [µg/mL]	also measured
50 to 100 (≈ 204 to 407 µM)	CCCCCCCCCCCCSCCN [n-dodecylthioethylamine]	50 (≈ 204 µM)	150 (≈ 611 µM)	
25 (≈ 132 µM)	CCCCCCCCSCCN [n-octylthioethylamine]	150 (≈ 792 µM)	75 (≈ 396 µM)	MFC (Aspergillus niger; pH 8.2, 3 hr.): 50 µg/mL (≈ 264 µM); MFC (Aspergillus niger; pH 8.2, 6 hr.): 25 µg/mL (≈ 132 µM); MFC (Aspergillus niger; pH 8.2, 24 hr.): 10 µg/mL (≈ 52.8 µM)
25 (≈ 123 µM)	CCCCCCCCCSCCN [n-nonylthioethylamine]			
